Measured values: US20050209278A1, “Piperidinyl- and piperazinyl-sulfonylmethyl hydroxamic acids and their use as protease inhibitors” (priority 2002, published 2005)
Values joined by “and” are separate entries in the source; they are usually repeats but may differ in a detail not shown here. Identical values can stand only once.

Legend:
MMP-9 = target: T1, MMP-9 (Homo sapiens, UniProt P14780); experiment: In vitro MMP inhibition, IC50 determination (fluorogenic substrate I); type: biochemical; conditions: value in parenthesis; read-out: MMP-9 (IC-50)
T1 construct: made in house; host or cells: MMP-9-transfected HT1080 cells (spent media)
T1 sequence (P14780 107-707 limits assumed): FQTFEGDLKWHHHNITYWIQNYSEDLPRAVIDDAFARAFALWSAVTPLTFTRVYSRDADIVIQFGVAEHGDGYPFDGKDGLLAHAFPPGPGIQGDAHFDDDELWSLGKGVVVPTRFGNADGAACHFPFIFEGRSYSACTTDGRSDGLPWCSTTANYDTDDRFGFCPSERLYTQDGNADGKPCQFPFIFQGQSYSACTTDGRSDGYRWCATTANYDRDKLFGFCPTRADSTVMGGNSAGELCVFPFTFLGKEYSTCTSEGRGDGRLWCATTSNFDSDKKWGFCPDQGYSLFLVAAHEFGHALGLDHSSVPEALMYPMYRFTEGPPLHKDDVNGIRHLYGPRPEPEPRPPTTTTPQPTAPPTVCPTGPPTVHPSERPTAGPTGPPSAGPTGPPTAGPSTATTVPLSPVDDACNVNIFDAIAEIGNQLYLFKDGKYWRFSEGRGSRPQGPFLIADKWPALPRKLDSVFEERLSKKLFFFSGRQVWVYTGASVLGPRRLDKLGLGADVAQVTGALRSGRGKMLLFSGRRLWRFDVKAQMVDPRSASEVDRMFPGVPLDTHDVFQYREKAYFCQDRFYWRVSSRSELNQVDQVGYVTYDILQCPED
Method: Several hydroxamic acids and salts thereof were analyzed in in vitro assays to determine their ability to inhibit the MMP cleavage of peptide substrates. […] and IC50 constants were calculated from the assayed hydroxamic acid-MMP interactions. Human recombinant MMP-1, MMP-2, MMP-9, MMP-13, and MMP-14 were used in this assay. All enzymes were prepared in Assignee's laboratories following usual laboratory procedures. Protocols for the preparation and use of these enzymes are available in the scientific literature. See, e.g., Enzyme Nomenclature (Academic Press, San Diego, Calif., 1992) (and the citations therein). See also, Freije et al., “Molecular cloning and expression of collagenase-3, a novel human matrix metalloproteinase produced by breast carcinomas,” J Biol. Chem., 269(24), 16766-16773 (1994). The MMP-9 proenzyme was purified by gelatin Sepharose chromatography from spent media of MMP-9-transfected HT1080 cells provided by Dr. Howard Welgus of Washington University (St. Louis, Mo.). All MMPs were activated using 4-aminophenylmercuric acetate (“APMA”, Sigma Chemical, St. Louis, Mo.) or trypsin. MMP-9 also was activated using human recombinant MMP-3 (purified in Assignee's laboratory following standard cloning and purification techniques). […] Substrate (I) was purchased from Baychem (Redwood City, Calif.), and substrate II was prepared Assignee's laboratory. Substrate I was used in the IC50 determination assays, while substrate II was used in the Ki determination assays. In the absence of MMP inhibitory activity, either substrate is cleaved at the Gly-Leu peptide bond. […] The stock solutions of the assayed hydroxamic acids (or salts thereof) were prepared in 1% dimethyl sulfoxide (DMSO). […] The experiment controls contained the same amount of Buffer A/DMSO as the assayed sample, but contained no hydroxamic acid (or salt thereof). The assays from which the IC50 determinations were made were performed as follows. […] Louis, Mo.). The assayed hydroxamic acid samples were incubated in MicrofluorTM White Plates (Dynatech, Chantilly, Va.) and analyzed on a Perkin Elmer […] plate reader (Norwalk, Conn.). The excitation wavelength was 328 nm, and the emission wavelength-415 nm. […] As stated in the previous paragraph, samples containing varying concentrations of the same assayed hydroxamic acid were prepared. Inhibition was measured as a reduction in fluorescent intensity as a function of MMP inhibitor concentration. […] All values in Table 2 are given in nM units. The IC50 measurements are in parenthesis.

MMP-14 = target: T2, MMP-14 (Homo sapiens, UniProt P50281); experiment: as above; type: biochemical; conditions: value in parenthesis; read-out: MMP-14 (IC-50)
T2 construct: The catalytic domain enzyme was expressed in E. coli inclusion bodies, solubilized in urea; made in house
Method: Several hydroxamic acids and salts thereof were analyzed in in vitro assays to determine their ability to inhibit the MMP cleavage of peptide substrates. […] and IC50 constants were calculated from the assayed hydroxamic acid-MMP interactions. Human recombinant MMP-1, MMP-2, MMP-9, MMP-13, and MMP-14 were used in this assay. All enzymes were prepared in Assignee's laboratories following usual laboratory procedures. Protocols for the preparation and use of these enzymes are available in the scientific literature. See, e.g., Enzyme Nomenclature (Academic Press, San Diego, Calif., 1992) (and the citations therein). See also, Freije et al., “Molecular cloning and expression of collagenase-3, a novel human matrix metalloproteinase produced by breast carcinomas,” J Biol. Chem., 269(24), 16766-16773 (1994). The MMP-14 full length cDNA was provided by Dr. Gregory Goldberg of Washington University (St. Louis, Mo.). The catalytic domain enzyme was expressed in E. coli inclusion bodies, solubilized in urea, purified on a preparative […] reverse phase HPLC column, and then refolded in the presence of zinc acetate and purified for use. All MMPs were activated using 4-aminophenylmercuric acetate (“APMA”, Sigma Chemical, St. Louis, Mo.) or trypsin. MMP-9 also was activated using human recombinant MMP-3 (purified in Assignee's laboratory following standard cloning and purification techniques). […] Substrate (I) was purchased from Baychem (Redwood City, Calif.), and substrate II was prepared Assignee's laboratory. Substrate I was used in the IC50 determination assays, while substrate II was used in the Ki determination assays. In the absence of MMP inhibitory activity, either substrate is cleaved at the Gly-Leu peptide bond. […] The stock solutions of the assayed hydroxamic acids (or salts thereof) were prepared in 1% dimethyl sulfoxide (DMSO). […] The experiment controls contained the same amount of Buffer A/DMSO as the assayed sample, but contained no hydroxamic acid (or salt thereof). The assays from which the IC50 determinations were made were performed as follows. […] Louis, Mo.). The assayed hydroxamic acid samples were incubated in MicrofluorTM White Plates (Dynatech, Chantilly, Va.) and analyzed on a Perkin Elmer […] plate reader (Norwalk, Conn.). The excitation wavelength was 328 nm, and the emission wavelength-415 nm. […] As stated in the previous paragraph, samples containing varying concentrations of the same assayed hydroxamic acid were prepared. Inhibition was measured as a reduction in fluorescent intensity as a function of MMP inhibitor concentration. […] All values in Table 2 are given in nM units. The IC50 measurements are in parenthesis.

Structure (SMILES) | IC50 (MMP-9) | IC50 (MMP-14)
O=C(NO)C1(S(=O)(=O)N2CCN(c3ccc(OC(F)(F)F)cc3)CC2)CCN(C2CC2)CC1 [Example 203] | 3.2 nM and 1.9 nM | 648 nM
CCCCCCc1ccc(N2CCN(S(=O)(=O)C3(C(=O)NO)CCN(CCOC)CC3)CC2)cc1 [Example 199] | 1 nM | 6710 nM
COCCN1CCC(C(=O)NO)(S(=O)(=O)N2CCN(c3ccc(Br)cc3)CC2)CC1 [Example 201] | 5.7 nM | 301 nM
CCCc1ccc(N2CCN(S(=O)(=O)C3(C(=O)NO)CCN(CCOC)CC3)CC2)cc1 [Example 200] | < 0.1 nM | 1490 nM
COCCN1CCC(C(=O)NO)(S(=O)(=O)N2CCN(c3ccc(OC(F)(F)F)cc3)CC2)CC1 [Example 202] | 6.3 nM | 1170 nM
